Structures are written as SMILES. Read-outs that look alike come from different tables or passages of the source. Marks after values point to notes of the source that are not given here.

Assay [1] deals with KB-3-1. Kind of assay: MTT cytotoxicity/reversal assay (Example 1). Type of assay: cell-based, human. Conditions: read-out: IC50 of cisplatin, alone. As for the experimental part:
(§1) The KB-C2 and KB-3-1 were kindly provided by Dr. Akiyama (Kagoshima University, Japan). HEK293-pcDNA3.1 and wild-type HEK/ABCG2 transfected cells were established by selection with G418 after transfecting HEK293 with either (1) empty pcDNA3.1 vector or (2) pcDNA3.1 vector containing full length of ABCG2 coding arginine (R) at amino acid position 482, and were then cultured in a medium with 2 mg/ml of G418 (ABCG2-482-R2 cells). Similarly, the HEK/MRP1 (ABCC1) and HEK/ABCB1 cells were generated by transfecting the HEK293 cells with either the MRP1 expression vector or the ABCB1 expression vector. All of the cell lines were grown in Dulbecco's modified Eagle's medium (DMEM) supplemented with 10% bovine serum, 100 units/ml penicillin, and […] streptomycin in a humidified incubator containing 5% CO2 at 37° C.
(§2) The MTT assay was used to assess cytotoxicity. The cultured cells were harvested with trypsin and resuspended in a final concentration of 4×10^3 cells/well for KB-3-1; 7.5×10^3 cells/well for KB-C2; and 8×10^3 for all of the other cell lines used in this study. Cells were seeded evenly in 96-well multiplates. […] After 68 h of incubation, 20 μl of the MTT solution (4 mg/ml) was added to each well, and the plate was further incubated for 4 h at 37° C., allowing viable cells to convert the yellow-colored MTT into dark-blue formazan crystals. Subsequently, the medium was discarded, and 100 μl of DMSO was added into each well to dissolve the formazan crystals, generating purple color. The absorbance was determined at 570 nm by an OPSYS Microplate Reader from DYNEX Technologies, Inc. (Chantilly, Va.). […] The degree of the reversal of multidrug resistance (MDR) was calculated by dividing the IC50 of an anticancer drug, e.g., an antineoplastic or chemotherapeutic drug (agent, compound), in a cell type in the absence of a reversal agent by the IC50 of the anticancer drug in the same cell type in the presence of the reversal agent. The IC50 values were calculated from survival curves using the Bliss method.

In another assay the test system is HEK293/pcDNA3.1. Kind of assay: MTT cytotoxicity/reversal assay (Example 1). Type of assay: cell-based. The settings on record: read-out: IC50 of cisplatin; HEK293/pcDNA3.1; alone. The protocol: as §1, §2
For a further assay, the system named is KB-V1. Kind of assay: MTT cytotoxicity/reversal assay (Example 2). Type of assay: cell-based, human. Conditions: read-out: IC50 of cisplatin, alone. The protocol: (§3) The ABCB1-overexpressing drug resistant cell line KB-V1 (generously provided by Dr. Gottesman, NCI, NIH) was established by a stepwise concentration increase of vinblastine in the culture medium of KB-3-1 cells and subsequently culturing these cells in medium with 1 μg/mL of vinblastine. An ABCC1-overexpressing MDR cell line, KB-CV60, was also derived from KB-3-1 cells and was maintained in medium with 1 μg/mL of cepharanthine and 60 ng/mL of vincristine. Both KB-C2 and KB-CV60 cell lines were kindly provided by Dr. Akiyama (Kagoshima University, Japan). HEK293/pcDNA3.1, ABCG2-482-R5, ABCG2-482-G2, and ABCG2-482-T7 cells were established by selection with 2 mg/mL G418 after transfecting HEK293 with either (1) empty pcDNA3.1 vector or (2) pcDNA3.1 vector containing full length ABCG2 coding either (2a) wild-type arginine (R) or mutant (2b) glycine (G) or (2c) threonine (T) at amino acid position 482, respectively. The wild-type ABCG2-overexpressing drug-resistant cell line MCF-7/Flv1000 was cultured in the medium with 1 μM of flavopiridol. […] Another G482 mutant ABCG2-overexpressing drug resistant cell line, S1-M1-80, was maintained in the medium with 80 μM of mitoxantrone. […] All the cell lines were grown as adherent monolayers in flasks with DMEM (Dulbecco's modified Eagle's medium) culture medium (Hyclone Co.) containing 10% bovine serum at 37° C. in a humidified atmosphere of 5% CO2.
(§4) Cells in 96-well plates were preincubated with or without the reversal agents for 1 h and then different concentrations of chemotherapeutic drugs were added into designated wells. After 68 h of incubation, MTT solution (4 mg/mL) was added to each well, and the plate was further incubated for 4 h, allowing viable cells to change the yellow-colored MTT into dark-blue formazan crystals. Subsequently the medium was discarded, and […] of DMSO was added into each well to dissolve the formazan crystals. The absorbance was determined at 570 nm by an OPSYS MR Microplate Reader from DYNEX Technologies, Inc.

Assay [2] has as its system KB-3-1. Kind of assay: MTT cytotoxicity/reversal assay (Example 2). Type of assay: cell-based, human. The settings on record: read-out: IC50 of cisplatin, alone. As for the experimental part:
as §3, §4

Another assay has as its system KB-C2. Kind of assay: MTT cytotoxicity/reversal assay (Example 2). Type of assay: cell-based, human. Conditions: read-out: IC50 of cisplatin, alone. The protocol: as §3, §4
In another assay the test system is HEK 293-pcDNA-3.1. Kind of assay: MTT cytotoxicity assay (Example 4). Type of assay: cell-based. Conditions: read-out: IC50 of cisplatin; HEK 293-pcDNA-3.1; alone. As for the experimental part:
The MRP7 cDNA was generously provided by Dr. Gary Kruh (University of Illinois, Chicago, Ill.) and inserted into the pcDNA3.1 expression vector. […] Individual colonies were selected in medium containing G418 (1 mg/ml) and cultured for further analysis.
MTT colorimetric assay was performed to analyze the drug sensitivity as previously described (Shi et al. (2007) Cancer Res. 67:11012-20). HEK293-pcDNA3.1 and HEK/MRP7 cells were seeded into 96-well plates in triplicate at 6000 cells/well.
After drug incubation of 68 h, 20 μl MTT solution (4 mg/ml) was added into each well. […] The Bliss method was used to calculate the IC50 values according to survival curves.
For orientation: Tetrazolium assays rely on reduction of a dye to a coloured formazan, in cell work by metabolically active cells.

A further assay concerns S1/FLV5000. Kind of assay: cells. Type of assay: cell-based. Conditions: S1/FLV5000, alone. The protocol:
as §3, §4

In a further assay the test system is S1. Kind of assay: MTT cytotoxicity/reversal assay (Example 2). Type of assay: cell-based. The protocol: as §3, §4
The subject of the next assay is S1-M1-80. Kind of assay: MTT cytotoxicity/reversal assay (Example 2). Type of assay: cell-based. As for the experimental part: as §3, §4
Another assay has as its system MCF-7. Kind of assay: MTT cytotoxicity/reversal assay (Example 2). Type of assay: cell-based. As for the experimental part:
as §3, §4

The next assay concerns MCF-7/Flv1000. Kind of assay: MTT cytotoxicity/reversal assay (Example 2). Type of assay: cell-based. The protocol: as §3, §4
The test system of the next assay is MCF7/ADVP3000. Kind of assay: MTT cytotoxicity/reversal assay (Example 2). Type of assay: cell-based. As for the experimental part: as §3, §4
In the next assay the test system is HEK293/pcDNA3. Kind of assay: MTT cytotoxicity/reversal assay (Example 2). Type of assay: cell-based. As for the experimental part: as §3, §4
A further assay deals with HEK/ABCG2-T7. Kind of assay: MTT cytotoxicity/reversal assay (Example 2). As for the experimental part:
as §3, §4

For the next assay, the system named is HEK/ABCG2-R5. Kind of assay: MTT cytotoxicity/reversal assay (Example 2). The protocol:
as §3, §4

The test system of a further assay is HEK/ABCG2-G2. Kind of assay: MTT cytotoxicity/reversal assay (Example 2). As for the experimental part:
as §3, §4

Where [3] appears, read: read-out: IC50 of cisplatin, alone.
Setting [4] is: Homo sapiens, alone, read-out: IC50 of flavopiridol.

By IC50 is commonly meant the point on the concentration scale where inhibition reaches its midpoint. As to `N.N.[Cl][Pt][Cl]` [Cisplatin, cisplatin], the IC50 in the assay on KB-3-1 [1] is 1900 ± 70.9 nM; in the assay on HEK293/pcDNA3.1, 890000 ± 33900 nM; in the assay on KB-V1, 1760 ± 178 nM; in the assay on KB-3-1 [2], 1740 ± 161 nM; in the assay on KB-C2 it was 1730 ± 83 nM; in the assay on HEK 293-pcDNA-3.1, 1570 ± 85 nM. Also, the IC50 with S1/FLV5000 (read-out: IC50 of cisplatin) was found to be 53400 ± 5800 nM; with S1 (setting [3]), 14700 ± 2230 nM; in the assay on S1-M1-80 (setting [3]) it was 18000 ± 2590 nM; in the assay with MCF-7 (setting [3]), 34400 ± 1760 nM; with MCF-7/Flv1000 (read-out: IC50 of cisplatin, MCF-7/Flv1000, alone) it was 35100 ± 1860 nM; in the assay on MCF7/ADVP3000 (setting [3]), 31100 ± 3200 nM. In the assay on HEK293/pcDNA3 (setting [3]), the IC50 was found to be 1630 ± 170 nM.
For the compound `CN1CC[C@H](c2c(O)cc(O)c3c(=O)cc(-c4ccccc4Cl)oc23)[C@H](O)C1` [Flavopiridol, flavopiridol], the “fold-resistance, flavopiridol” value with HEK/ABCG2-T7 is listed as “(4.6)”; in the assay on HEK/ABCG2-R5, “(1.7)”; in the assay on HEK/ABCG2-G2, “(2.4)”; in the assay with S1/FLV5000 it was “(64.9)”; in the assay on S1 (alone), “(1.0)^c”; in the assay on S1-M1-80 (alone) it was “(7.3)”. Besides, the “fold-resistance, flavopiridol” value is “(1.0)^c” with MCF-7 (alone); “(19.9)” in the assay with MCF-7/Flv1000 (MCF-7/Flv1000, alone); “(11.3)” in the assay on MCF7/ADVP3000 (alone); “(1.0)^c” with HEK293/pcDNA3 (alone). The IC50 in the assay with S1/FLV5000 (read-out: IC50 of flavopiridol) is 6200 ± 463 nM; with S1 (alone, read-out: IC50 of flavopiridol), 96.1 ± 9.6 nM; in the assay on S1-M1-80 (setting [4]), 699 ± 47 nM; in the assay on MCF-7 (Homo sapiens, MCF7, alone, read-out: IC50 of flavopiridol), 344.3 ± 2.1 nM; in the assay on MCF-7/Flv1000 (MCF-7 FLV1000, read-out: IC50 of flavopiridol), 6860 ± 479 nM; in the assay with MCF7/ADVP3000 (setting [4]), 3900 ± 414 nM. Also, in the assay on HEK293/pcDNA3 (setting [4]), the IC50 amounted to 164 ± 17.1 nM.

(Values after patent US8673914B2, “Use of phosphodiesterase inhibitors for treating multidrug resistance” (St. John's University, priority 2011, dated 2014).)
